# Measured values taken from patent US9555039B2, “Piperidine derivatives and compositions for the inhibition of nicotinamide phosphoribosyltransferase (NAMPT)” (Forma TM, LLC., priority 2011, dated 2017).
# Legend:
# A2780 cells = assay: In-vitro cell proliferation assay (SRB, 72 hours); format: cell-based; details: Homo sapiens, sulforhodamine B (SRB) assay
# Method in brief: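 Background from media-only plate subtracted; inhibition relative to DMSO-treated cells, value derived by interpolation between two concentrations.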
# [1] = target: T1, Recombinant His-tagged NAMPT (Homo sapiens, UniProt P43490); assay: Biochemical inhibition assay: NAMPT enzymatic reaction, NMN quantified by mass spectrometry; details: 33 nM NAMPT, 1 μM NAM, 100 μM PRPP, 2.5 mM ATP, 30 minutes at room temperature; read-out: Biochem IC50
# T1 construct: His; host or cells: E. coli
# T1 sequence (P43490 whole entry): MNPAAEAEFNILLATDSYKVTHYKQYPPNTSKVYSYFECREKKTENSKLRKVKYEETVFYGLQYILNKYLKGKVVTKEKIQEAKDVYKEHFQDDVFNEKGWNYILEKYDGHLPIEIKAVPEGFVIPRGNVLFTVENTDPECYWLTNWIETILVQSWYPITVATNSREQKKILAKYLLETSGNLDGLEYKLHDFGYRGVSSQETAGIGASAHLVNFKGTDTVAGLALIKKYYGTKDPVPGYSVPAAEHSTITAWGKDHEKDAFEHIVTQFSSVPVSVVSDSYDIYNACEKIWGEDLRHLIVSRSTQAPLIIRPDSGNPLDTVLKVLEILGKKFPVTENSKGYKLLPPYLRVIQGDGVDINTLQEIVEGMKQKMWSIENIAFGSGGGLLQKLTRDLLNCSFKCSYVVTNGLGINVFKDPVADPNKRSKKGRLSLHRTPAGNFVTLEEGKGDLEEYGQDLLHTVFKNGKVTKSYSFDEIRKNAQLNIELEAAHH
# Method in brief: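 Reaction 30 min at room temperature with 1 μM NAM, 100 μM PRPP, 2.5 mM ATP (final), quenched with formic acid. NMN quantified by RapidFire electrospray MS, normalized to L-cystathionine; IC50 from percent inhibition versus DMSO.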
Compound,IC50 (A2780 cells) [nM],IC50 [1] [nM]
"COc1cc(Cl)ccc1C(=O)N1CCC(CCCCNC(=O)c2cc3ccncc3s2)CC1 [N-(4-{1-[(4-chloro-2-methoxyphenyl)carbonyl]piperidin-4-yl}butyl)thieno[2,3-c]pyridine-2-carboxamide]",13,15.5
"O=C(NCCCCC1CCN(S(=O)(=O)c2ccc(F)cc2)CC1)c1cc2cnccc2[nH]1 [N-(4-{1-[(4-fluorobenzene)sulfonyl]piperidin-4-yl}butyl)-1H-pyrrolo[3,2-c]pyridine-2-carboxamide]",17.6,48.9
"O=C(NCCCCC1CCN(C(=O)c2ccc(F)cc2F)CC1)c1cc2ccncc2s1 [N-(4-{1-[(2,4-difluorophenyl)carbonyl]piperidin-4-yl}butyl)thieno[2,3-c]pyridine-2-carboxamide]",13.5,12.8
